Read-outs that look alike come from different tables or passages of the source.
Test system: HT-1080
Assay: Modulatory profiling: Alamar Blue viability, lethal compound cotreated with death modulator (EC50, AUC); as to AUC HT.BHA: reference of the scale not given here; as to AUC HT.EGTA: reference of the scale not given here
Format: cell-based
Design: AUC, modulator HT.3MA / AUC, modulator HT.ALLN / AUC HT.ATA / AUC HT.ActD / AUC HT.BHA / AUC HT.BHT / AUC HT.BocD / AUC HT.CHX / AUC HT.Co2+ / AUC HT.DPQ / AUC HT.EGTA / AUC HT.Lmim / AUC HT.NAD+ / AUC HT.Nec-1 / AUC HT.SP600125 / AUC HT.TLCK / AUC HT.U0126: unit not given beside the values
Details: for AUC HT.ATA: HT-1080, modulator ATA; for AUC HT.ActD: HT-1080, modulator ActD; for AUC HT.BHA: HT-1080, modulator BHA; for AUC HT.BHT: HT-1080, modulator BHT; for AUC HT.BocD: HT-1080, modulator BocD; for AUC HT.CHX: HT-1080, modulator CHX; for AUC HT.Co2+: HT-1080, modulator Co2+; for AUC HT.CspA: HT-1080, modulator CspA; for AUC HT.DPQ: HT-1080, modulator DPQ; for AUC HT.Gd3+: HT-1080, modulator Gd3+; for AUC HT.LNAME: HT-1080, modulator LNAME; for AUC HT.Lmim: HT-1080, modulator Lmim; for AUC HT.NAD+: HT-1080, modulator NAD+; for AUC HT.NMMA: HT-1080, modulator NMMA; for HT.atoc (AUC) / HT.bCarotene (AUC) / HT.deferox (AUC) / HT.digoxin (AUC) / HT.trolox (AUC) / HT.zVAD (AUC) / EC50: HT-1080; for HT.atoc (AUC): modulator atoc; for HT.bCarotene (AUC): modulator bCarotene; for HT.deferox (AUC): modulator deferox; for HT.digoxin (AUC): modulator digoxin; for HT.trolox (AUC): modulator trolox; for HT.zVAD (AUC): modulator zVAD; for AUC, modulator HT.3MA / AUC, modulator HT.ALLN: HT-1080 cells, modulatory profile value (AUC); for AUC, modulator HT.3MA: lethal compound cotreated with modulator 3MA; for AUC, modulator HT.ALLN: lethal compound cotreated with modulator ALLN; for EC50: Homo sapiens, HT-1080, 48 h, 48 h

| Structure (SMILES) | AUC HT.ATA | AUC HT.ActD | AUC HT.BHA | AUC HT.BHT | AUC HT.BocD | AUC HT.CHX | AUC HT.Co2+ | AUC HT.CspA | AUC HT.DPQ | AUC HT.Gd3+ | AUC HT.LNAME | AUC HT.Lmim | AUC HT.NAD+ | AUC HT.NMMA | HT.atoc (AUC) | HT.bCarotene (AUC) | HT.deferox (AUC) | HT.digoxin (AUC) | HT.trolox (AUC) | HT.zVAD (AUC) | other results |
| --- | --- | --- | --- | --- | --- | --- | --- | --- | --- | --- | --- | --- | --- | --- | --- | --- | --- | --- | --- | --- | --- |
| Cc1cccc(-n2ncc(Cl)c(Cl)c2=O)c1 [CIL22] | 0.05908 | −0.02402 | 0.001925 | −0.05238 | 0.008628 | 0.01938 | −0.03478 | −0.03611 | −0.00934 | −0.004534 | 0.04608 | 0.01659 | 0.01014 | 0.01444 | 0.04912 | −0.01174 | 0.06507 | 0.05675 | −0.004921 | 0.02835 | AUC HT.EGTA: −0.01254; AUC, modulator HT.3MA: −0.01606; AUC, modulator HT.ALLN: 0.02849 |
| COc1nn(-c2ccccc2)c(=O)c(Cl)c1Cl [CIL23] | 0.01792 | 0.01969 | 0.00702 | −0.02762 | −0.01259 | 0.08773 | 0.03316 | −0.02326 | 0.01052 | −0.000221 | 0.005628 | 0.01608 | −0.0002222 | −0.001084 | 0.03663 | −0.001122 | 0.1512 | 0.03673 | 0.004402 | 0.02043 | AUC HT.EGTA (HT-1080, modulator EGTA): −0.01323; AUC, modulator HT.3MA: 0.01609; AUC, modulator HT.ALLN: 0.001521 |
| CC1CC2=C(CC1CNCCCN(C)C)C(C)(C)CCC2 (centres unmarked) [CIL26] | 0.04192 | −0.002488 | −0.1441 | −0.1215 | 0.008992 | −0.02052 | −0.02744 | −0.04225 | 0.02987 | −0.005334 | 0.001215 | −0.004 | −0.01406 | −0.009692 | 0.04649 | −0.03349 | −0.1033 | −0.03641 | −0.0327 | −0.01226 | AUC HT.EGTA (HT-1080, modulator EGTA): 0.009998; AUC, modulator HT.3MA: 0.0321; AUC, modulator HT.ALLN: 0.001592 |
| Cc1ccc(O)c(/N=C/C=C/c2cccc(Br)c2)c1 [CIL27] | 0.04845 | 0.03171 | −0.0156 | −0.05537 | 0.003288 | 0.04576 | 0.04606 | −0.03639 | 0.02307 | −0.0168 | 0.001204 | −0.001055 | −0.0034 | −0.01331 | 0.04362 | −0.01166 | 0.1441 | 0.001262 | −0.05943 | −0.01508 | AUC HT.EGTA (HT-1080, modulator EGTA): 0.02604; AUC, modulator HT.3MA: 0.0766; AUC, modulator HT.ALLN: 0.1636 |
| CC(C)=CCCC1=CCC(CNCCCN(C)C)C(C)C1 (centres unmarked) [CIL28] | 0.06113 | −0.01352 | −0.1362 | −0.1108 | 0.01462 | 0.0328 | −0.03292 | −0.01858 | 0.04404 | −0.02583 | −0.0045 | 0.001311 | 0.007089 | −0.009763 | 0.1068 | −0.03341 | −0.04312 | −0.007104 | −0.03025 | −0.009003 | AUC HT.EGTA (HT-1080, modulator EGTA): 0.005868; AUC, modulator HT.3MA: 0.0937; AUC, modulator HT.ALLN: 0.04719 |
| O=C(/C=C/c1cccc(NC(=O)c2cccs2)c1)c1ccccc1 [CIL33] | 0.04655 | −0.03269 | −0.02938 | −0.1089 | 0.006307 | 0.06763 | 0.1418 | −0.03213 | 0.02728 | −0.02182 | 0.003047 | −0.007068 | −0.0189 | −0.002248 | 0.04094 | −0.01651 | 0.1056 | −0.03413 | −0.05079 | 0.03457 | AUC HT.EGTA (HT-1080, modulator EGTA): −0.007461; AUC, modulator HT.3MA: 0.08789; AUC, modulator HT.ALLN: 0.04123 |
| COC(C)(C)C#CC(=O)c1cccc2ccccc12 [CIL34] | 0.05661 | −0.03224 | 0.01628 | −0.1102 | −0.007476 | 0.0461 | 0.09926 | −0.02181 | 0.0333 | −0.02283 | −0.00517 | −0.002139 | −0.005535 | −0.003031 | 0.08125 | 0.001321 | 0.1115 | −0.01032 | −0.02993 | 0.007148 | AUC HT.EGTA (HT-1080, modulator EGTA): −0.002035; AUC, modulator HT.3MA: 0.1255; AUC, modulator HT.ALLN: 0.1551 |
| CCCCNc1c(Cl)cnn(-c2ccccc2)c1=O [CIL36] | 0.05274 | −0.04409 | 0.0054 | −0.1272 | 0.002169 | −0.06645 | 0.02821 | 0.01593 | 0.05193 | −0.04267 | −0.02799 | 0.004214 | −0.06378 | −0.009501 | 0.08942 | −0.005276 | 0.06452 | −0.03557 | 0.002425 | −0.003588 | AUC HT.EGTA (HT-1080, modulator EGTA): −0.01311; AUC, modulator HT.3MA: 0.08327; AUC, modulator HT.ALLN: 0.1422 |
| N/C(=N\OC(=O)C12CC3CC(CC(C3)C1)C2)c1ccccc1 [CIL41] | 0.02643 | −0.09343 | 0.1312 | 0.009338 | −0.01678 | −0.05459 | 0.06389 | 9.4409E−05 | 0.04282 | −0.02592 | −0.0121 | 0.1377 | −0.008657 | −0.01029 | 0.316 | −0.02182 | 0.1795 | −0.09255 | 0.161 | −0.0167 | AUC HT.EGTA (HT-1080, modulator EGTA): 0.02946; effect of ferroptosis inhibitors (iron chelators and lipophilic antioxidants) on lethality in modulatory profiling (HT-1080 and BJeLR): suppression by canonical ferroptosis inhibitors; AUC, modulator HT.3MA: 0.04521; AUC, modulator HT.ALLN: 0.09324; EC50 (DMSO): 5.67 µM; EC50 (cotreated with MEK inh U0126): 20.9 µM; EC50 (cotreated with antioxidant Atoc): 50 µM; EC50 (cotreated with antioxidant BHA): 26 µM; EC50 (cotreated with antioxidant BHT): 12.6 µM; EC50 (cotreated with antioxidant Trolox): 23.4 µM; EC50 (cotreated with iron-chelator Deferoxamine): 124 µM; EC50 (cotreated with iron-chelator Lmim): 69.8 µM |
| O=P(Oc1ccccc1)(Oc1ccccc1)O[C@@H]1C=CS(=O)(=O)C1 [CIL44] | 0.0592 | 0.01649 | −0.02559 | −0.1007 | −0.0552 | 0.02874 | −0.04658 | −0.01586 | −0.01669 | −0.01147 | −0.02505 | −0.007614 | −0.07144 | −0.0419 | 0.04386 | −0.02012 | 0.1041 | 0.01992 | −0.02106 | 0.01751 | AUC HT.EGTA (HT-1080, modulator EGTA): −0.007267; AUC, modulator HT.3MA: 0.07356; AUC, modulator HT.ALLN: 0.1392 |

Source: patent US10947188B2, “Small molecule ferroptosis inducers” (THE TRUSTEES OF COLUMBIA UNIVERSITY IN THE CITY OF NEW YORK, priority 2016, dated 2021)
